According to patent US20170313808A1, “BIOACTIVE POLYMERIC LIQUID FORMULATIONS OF ABSORBABLE, SEGMENTED APLIPHATIC POLYURETHANE COMPOSITIONS” (priority 2008, published 2017):

Experiments:
SKOV3 = assay: Testing with ovarian cancer cell lines (SKOV3); type: cell-based; conditions: ovarian cancer cell line SKOV3
S aureous = assay: Antibacterial testing with S aureous; type: cell-based

In the case of Cc1oncc1C(=O)Nc1ccc(C(F)(F)F)cc1 [Leflunomide], the “Additional Uses and Properties” value (SKOV3) was “Antineoplastic, as per testing”.
For Clc1ccc(COC(Cn2ccnc2)c2ccc(Cl)cc2Cl)c(Cl)c1 (stereo not drawn) [Miconazole], the “Additional Uses and Properties” value (SKOV3) was “Antineoplastic (as per testing”.
With O=c1[nH]cc(F)c(=O)[nH]1 [5-Fluorouracil] the “Additional Uses and Properties” value (S aureous) was “Antibacterial as per testing”.
For CO[C@@]12[C@H](COC(N)=O)C3=C(C(=O)C(C)=C(N)C3=O)N1C[C@@H]1N[C@@H]12 [Mitomycin], the “Additional Uses and Properties” value (SKOV3) was “Antineoplastic, as per testing”.
OC(Cn1cncn1)(Cn1cncn1)c1ccc(F)cc1F [Fluconazole] was tested, and the “Additional Uses and Properties” value (SKOV3) was “Antineoplastic (as per testing”.
In the case of CC(=O)O[C@H]1C(=O)[C@@]2(C)[C@H]([C@H](OC(=O)c3ccccc3)[C@]3(O)C[C@H](OC(=O)[C@H](O)[C@@H](NC(=O)c4ccccc4)c4ccccc4)C(C)=C1C3(C)C)[C@]1(OC(C)=O)CO[C@@H]1C[C@@H]2O [Paclitaxel], the “Additional Uses and Properties” value (S aureous) was “Antibacterial as per testing”.
